Assay results as given in patent US12564595B2, “Prophylactic and therapeutic pharmaceutical agent for HIV infectious diseases characterized by comprising combination of integrase inhibitor and anti-HIV agent” (Shionogi & Co., Ltd., priority 2019, dated 2026).

How the values were obtained:
[1] = test system: HIV mutant strain 2 (E92Q/E138T/G140S/Q148H); test: Test Example 2: resistance evaluation test (HeLa-CD4 reporter), mutant strain 2; type: cell-based; details: FC=EC50 of mutant strain/EC50 of wild strain; HeLa-CD4 cells
Method: (§1) A serial dilution series of test samples in 96-well microplates was prepared (50 […]).
(§2) 2.5×10^4/mL of HeLa-CD4 cell suspension was dispensed into each of the microplates containing test sample, in the amount of 100 μL/well, and HIV virus liquid (wild strain and mutant strain) was then dispensed in an amount of 50 μL/well. Mixing was performed using a plate mixer and culturing was performed for three days in a CO2 incubator. After removing the cultured supernatant of each well by suction, 100 μL of the cell solution buffer in the reporter measurement kit was dispensed thereto, and freezing was conducted in a refrigerator (−80° C.). The plates frozen in the refrigerator were defrosted at room temperature, then mixed using a plate mixer and centrifuged for 5 min at 1,200 rpm. The supernatant of each well was divided to 96-well microplates (BLACK) in the amount of 20 μL in each case. The chemiluminescence reagent in the reporter assay kit was dispensed in the amount of 100 μL in each case, and, after reacting for about 1 h at room temperature, the amount of luminescence was measured using a MicroBeta TRILUX.
(§3) The degree of resistance (fold change (FC)) of each mutant strain was also calculated using the following formula. FC=EC50 of mutant strain/EC50 of wild strain (Results)
(§4) The results of the example compounds relating to formula (I) of (A) are shown below. The […] in respect of mutant strain 1 (E138K/G140S/Q148H/N155H) and the FC in respect of mutant strain 2 (E92Q/E138T/G140S/Q148H) are shown in the Table.

[2] = Test Example 8: metabolic stability test; type: in vitro ADME, human
Method: The extent of metabolization of the compound according to the present invention in the liver was evaluated by reacting commercially available pooled human liver microsomes with the compound according to the present invention for a fixed time and calculating the remaining percentage by comparing the reaction sample with an unreacted sample.
The reaction (oxidative reaction) was conducted for 0 min or 30 min at 37° C. in the presence of 1 mmol/L of NADPH, in a 0.2 mL buffer solution containing 0.5 mg of human liver microsome protein/mL (50 mmol/L Tris-HCl pH 7.4, 150 mmol/L potassium chloride, 10 mmol/L magnesium chloride). After the reaction, 50 μL of reaction liquid were added to 100 μL of methanol/acetonitrile=1/1 (v/v) solution, mixed, and centrifuged for 15 minutes at 3000 rpm. The compound according to the present invention in the centrifuged supernatant was quantified using LC/MS/MS or solid phase extraction (SPE)/MS; the residual amount of the compound according to the present invention after the reaction was calculated, taking the amount of the compound at the 0 min reaction point as 100%.

[3] = test system: HIV mutant strain 1 (E138K/G140S/Q148H/N155H); test: Test Example 2: resistance evaluation test (HeLa-CD4 reporter), mutant strain 1; type: cell-based; details: FC=EC50 of mutant strain/EC50 of wild strain; HeLa-CD4 cells
Method: as §1, §2, §3, §4

[4] = pooled human liver microsomes, 30 min at 37° C., NADPH, compound concentration 0.5 μmol/L
[5] = human, microsomes, 0.5 h, 0.5 μmol/L, pH 7.4

| SMILES | FC in respect of mutant strain 2 (E92Q/E138T/G140S/Q148H) [1] | Remaining percentage [2, 4] [%] | FC in respect of mutant strain 1 (E138K/G140S/Q148H/N155H) [3] | Remaining percentage [2, 5] [%] |
| --- | --- | --- | --- | --- |
| CCN1C(=O)c2c(O)c(=O)c(C(=O)NCc3c(F)cc(F)cc3F)cn2N2CCCC[C@@H]12 [Compound I-016] | 10 | 88 | 13 | – |
| CCN1C(=O)c2c(O)c(=O)c(C(=O)NCc3ccc(F)cc3F)cn2N2CCCC[C@@]12C [Compound I-024] | 16 | 92.5 | 24 | – |
| CC(C)N1C(=O)c2c(O)c(=O)c(C(=O)NCc3c(F)cc(F)cc3F)cn2N2C[C@@H]3CC[C@@H](O3)[C@@H]12 [II-002] | 7.4 | 80.2 | 3.1 | – |
| COC[C@@H]1CC[C@H]2N(C(C)C)C(=O)c3c(O)c(=O)c(C(=O)NCc4ccccc4F)cn3N12 [II-005] | 7.7 | 80.8 | 4.6 | – |
| CC(C)N1C(=O)c2c(O)c(=O)c(C(=O)NCc3ccccc3F)cn2N2C[C@@H]3CC[C@@H](O3)[C@@H]12 [II-009] | 6.4 | 87 | 5.6 | – |
| CCN1C(=O)c2c(O)c(=O)c(C(=O)NCc3ccc(F)cc3F)cn2N2C[C@@H]3CCC[C@@H](C3)[C@@H]12 [II-013] | 8.7 | 77.6 | 6.1 | – |
| CCN1C(=O)c2c(O)c(=O)c(C(=O)NCc3c(F)cc(F)cc3F)cn2N2C[C@@H]3CC[C@@H](C3)[C@@H]12 [II-014] | 7.3 | 74.3 | 5.7 | – |
| CC(C)N1C(=O)c2c(O)c(=O)c(C(=O)NCc3ccc(F)cc3F)cn2N2C[C@@H]3CC[C@@H](O3)[C@@H]12 [II-016] | 9 | 89.1 | 6.6 | – |
| C[C@H]1CC[C@H]2N(C)C(=O)c3c(O)c(=O)c(C(=O)NCc4cccc(Cl)c4F)cn3N2C1 [II-019] | 7 | 84.1 | 7.3 | – |
| CC(C)N1C(=O)c2c(O)c(=O)c(C(=O)NCc3ccc(F)cc3F)cn2N2CCOC[C@@H]12 [II-021] | 14 | 87.5 | 8.1 | – |
| CN1C(=O)c2c(O)c(=O)c(C(=O)NCc3cccc(Cl)c3F)cn2N2C[C@@H]3CC[C@@H](C3)[C@@H]12 [II-023] | 15 | 74.2 | 9.9 | – |
| CCN1C(=O)c2c(O)c(=O)c(C(=O)NCc3ccc(F)cc3F)cn2N2[C@H]3COC[C@H]3C[C@@H]12 [II-038] | 110 | – | 78 | 77.2 |
| CCN1C(=O)c2c(O)c(=O)c(C(=O)NCc3ccc(F)cc3F)cn2N2C[C@H](COC)C[C@@H]12 [II-039] | 62 | 84.3 | 48 | – |
| CCN1C(=O)c2c(O)c(=O)c(C(=O)NCc3c(F)cc(F)cc3F)cn2N2C[C@@H]3CC[C@@H](O3)[C@@H]12 [II-041] | 28 | 88.4 | 17 | – |
| CCN1C(=O)c2c(O)c(=O)c(C(=O)NCc3c(F)cc(F)cc3F)cn2N2C[C@@H](C)C[C@@H]12 [II-043] | 17 | 83.2 | 18 | – |
| CCN1C(=O)c2c(O)c(=O)c(C(=O)NCc3ccc(F)cc3F)cn2N2C[C@@H](COC)C[C@@H]12 [II-056] | 28 | 94.3 | 15 | – |
| CN1C(=O)c2c(O)c(=O)c(C(=O)NCc3cccc(Cl)c3F)cn2N2C[C@@H]3CC[C@@H](O3)[C@@H]12 [II-058] | 15 | 97.7 | 25 | – |
| C[C@H]1CC[C@H]2N(C)C(=O)c3c(O)c(=O)c(C(=O)NCc4ccc(Cl)cc4F)cn3N2C1 [II-063] | 25 | 95.7 | 38 | – |
| CCN1C(=O)c2c(O)c(=O)c(C(=O)NCc3ccc(F)cc3F)cn2N2CC[C@H](C)C[C@@H]12 [II-064] | 22 | 104 | 27 | – |
| CCN1C(=O)c2c(O)c(=O)c(C(=O)NCc3ccc(F)cc3)cn2N2CCCC[C@@H]12 [II-070] | 36 | 100 | 32 | – |
| CCN1C(=O)c2c(O)c(=O)c(C(=O)NCc3ccc(F)cc3F)cn2N2[C@H](COC)CC[C@@H]12 [II-084] | 38 | 97.5 | 39 | – |
| CCN1C(=O)c2c(O)c(=O)c(C(=O)NCc3ccc(F)cc3F)cn2N2C[C@@H]3CC[C@@H](O3)[C@@H]12 [II-088] | 45 | 101 | 47 | – |
| CN1C(=O)c2c(O)c(=O)c(C(=O)NCc3c(F)cc(F)cc3F)cn2N2CCCC[C@@H]12 [II-089] | 14 | 105 | 38 | – |
| CN1C(=O)c2c(O)c(=O)c(C(=O)NCc3cccc(F)c3F)cn2N2CCCC[C@@H]12 [II-091] | 17 | 96.9 | 48 | – |
| CN1C(=O)c2c(O)c(=O)c(C(=O)NCc3cccc(Cl)c3F)cn2N2CCOC[C@@H]12 [II-094] | 27 | 97.2 | 50 | – |
| CN1C(=O)c2c(O)c(=O)c(C(=O)NCc3cccc(Cl)c3F)cn2N2CCCC[C@@]12C [II-129] | 26 | 88.6 | 44 | – |
| CN1C(=O)c2c(O)c(=O)c(C(=O)NCc3cccc(Cl)c3F)cn2N2[C@H]3COC[C@H]3C[C@@H]12 [II-132] | 17 | – | 76 | 101 |
| CC(C)N1C(=O)c2c(O)c(=O)c(C(=O)NCc3c(F)cc(F)cc3F)cn2N2[C@H]3COC[C@H]3C[C@@H]12 [II-133] | 34 | – | 17 | 73.3 |
